Assay results as given in PubChem BioAssay AID2060903 (Molecular Pharmacology Branch, DTP, NCI, 2025).
“And” between values parts separate entries of the source, which are not always exact repeats. Equal entries are not always repeated.

Test system: 377384-186-R-J1-PDC complex spheroid viability
Assay: Anticancer human tumor 377384-186-R-J1-PDC patient-derived pancreatic carcinoma cell line growth inhibition [RAS]
Conditions: for viability, T/C: stronger effect = lower value
Source text: RAS pathway inhibitors in Combinations in Complex Spheroids
A high-throughput screen of multi-cell type tumor spheroids was designed to identify active combinations of RAS pathway inhibitors and targeted small molecules. Complex spheroids include a stromal component modeled by human endothelial cells (HUVEC) and fibroblasts modeled by human mesenchymal stem cells (MSCs). The concentration ranges selected for each drug and investigational agent were based upon clinically achievable concentrations if the clinical Cmax of the agent was known.
Compounds. The drugs and investigational agents: abemaciclib (NSC768073), cobimetinib (NSC768068), divarasib (GDC6063, NSC841802), docetaxel (NSC628503), GDC-1971 (RLY-1971, NSC841576), gemcitabine (NSC613327), inavolisib (NSC800729), ipatasertib (NSC767898), KB-0742 (NSC834161), MRTX-1133 (NSC836407), osimertinib (NSC779217), RMC-4630 (NSC839698), RMC-6236 (NSC851965), RMC-6291 (NSC852671), Ro-3306 (NSC812927), sapanisertib (NSC764658), SN-38 (NSC673596), staurosporine (NSC755774), SY5609 (NSC837396), and tovorafenib (DAY101, NSC766906), were obtained from the National Cancer Institute (NCI) Developmental Therapeutics Program Chemical Repository. The FDA-approved anticancer drug set is available from the NCI Developmental Therapeutics Program. […] The stock solutions were prepared in dimethyl sulfoxide (DMSO, Sigma-Aldrich, St. Louis, MO, cat. D2650) at 800-fold the tested concentration and stored at -70 degrees C prior to their use. All drugs and investigational agents were tested over a range starting from a high concentration at or near the clinical Cmax and decreasing in half-log increments. If the clinical Cmax for an agent had not been determined, the highest concentration tested was 10 microM.
Cell Culture. All cells were maintained in an incubator at 37 degrees C and 5% CO2 with 95% humidity. The PDC lines were cultured according to standard operating procedures established by the NCI PDMR. All PDCs were thawed and cultured in Matrigel-coated flasks prepared with a working solution of 1X Ham's F-12 nutrient mix, without supplementation (Invitrogen, Waltham, MA, cat. 11765054), 100 U/mL penicillin-streptomycin (Invitrogen, cat. 15140122), and 2.5% Matrigel (Corning Inc., Corning, NY, cat. 354248) for the first three passages. The 362531-283-R-J2-PDC and 782815-120-R-J1-PDC lines were cultured in 6C/Colon 1B media, which includes advanced DMEM/F-12 (Thermo Fisher Scientific, cat. 12634028), 10 mM HEPES (Thermo Fisher Scientific, cat. 15630080), 1X GlutaMAX supplement (Thermo Fisher Scientific, cat. 35050061), 0.1 mg/mL primocin (InvivoGen, San Diego, CA, cat. ant-pm-2), 10% defined fetal bovine serum, heat inactivated (HyClone Laboratories Inc., Logan, UT, cat. SH30070.03HI), 50% L-WRN conditioned media (ATCC, cat. CRL-3276), 1.25 mM N-Acetyl-L-cysteine (Sigma-Aldrich, cat. A9165), 10 mM nicotinamide (Sigma-Aldrich, cat. N0636), 1X B-27 supplement (Thermo Fisher Scientific, cat. 17504044), 1X N-2 supplement (Thermo Fisher Scientific, cat. 17502048), 50 ng/mL human EGF (Thermo Fisher Scientific, cat. PHG0311), and 10 microM Y-27632 dihydrochloride (Tocris Bioscience, cat. 1254). The K12877-001-R-J1-PDC line was cultured in 6I media, which includes all 6C/Colon 1B media plus 10 ng/mL human FGF-10 (PeproTech, cat. 100-26), 1 ng/mL human FGF-2 (PeproTech, cat. 100-18B), 1 µM prostaglandin E2 (Tocris Bioscience, cat. 2296), […] hydrocortisone (Sigma-Aldrich, cat. H4001), and […] bovine insulin (Sigma-Aldrich, cat. I6634). The K86415-001-R-J1-PDC line was cultured in 6D media, which includes all 6C/Colon 1B media components minus the L-WRN conditioned media. The 485176-168-R4-J1-PDC was cultured in PANC media, which includes all 6C/Colon 1B media plus 100 ng/mL human FGF-10 (PeproTech, cat. 100-26), 500 nM SB-431542 (Selleckchem, cat. S1067), and 10 nM gastrin (Tocris Bioscience, cat. 3006). […]

[1] = compound alone, run of 09/09/2024
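Also: spheroids exposed to compounds for seven days before readout.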

Row | IC50 (curve of compound) | SMILES | viability, T/C (compound 0.0316 µM) | viability, T/C (compound 0.1 µM) | viability, T/C (compound 0.316 µM) | viability, T/C (compound 1 µM) | viability, T/C (compound 3.16 µM) | viability, T/C (compound 10 µM) | viability, T/C (compound 0.00316 µM) | viability, T/C (compound 0.01 µM) | other results
1 |  | C#Cc1c(F)ccc2cc(O)cc(-c3ncc4c(N5CC6CCC(C5)N6)nc(OCC56CCCN5CC(F)C6)nc4c3F)c12 (stereo not given) | 25.6% [middle of 8 runs] | 11.4% [middle of 8 runs] | 4.64% [middle of 8 runs] | 3.15% [middle of 8 runs] | 2.31% [middle of 8 runs] | 1.33% [middle of 8 runs] |  |  | IC50 [1]: < 31.6 nM
2 | > 1000 nM | C=CC(=O)N1CCN(c2nc(OCC3CCCN3C)nc3c(F)c(-c4nc(N)cc(C)c4C(F)(F)F)c(Cl)cc23)C(C)C1 (stereo not given) | 95.5% [middle of 12 runs] |  |  | 96.5% [middle of 12 runs] |  |  | 96.1% [middle of 12 runs] |  | IC50 [1]: > 1000 nM
3 | 639 nM [middle of 4 runs] | C=CC(=O)Nc1cc(Nc2nccc(-c3cn(C)c4ccccc34)n2)c(OC)cc1N(C)CCN(C)C | 92.6% [middle of 4 runs] | 87.7% [middle of 4 runs] | 64.9% [middle of 4 runs] | 40.4% [middle of 4 runs] |  |  | 95.6% [middle of 4 runs] | 97.8% [middle of 4 runs] | 
4 |  | CC(C)n1nc(-c2ccc3oc(N)nc3c2)c2c(N)ncnc21 | 34.8% [middle of 4 runs] |  |  |  |  |  | 69% [middle of 4 runs] | 61.9% [middle of 4 runs] | viability, T/C (compound 0.001 µM): 80.6% [middle of 4 runs]
5 | 476 nM [middle of 4 runs] | CC(Nc1ccc2c(c1)OCCn1cc(N3C(=O)OCC3C(F)F)nc1-2)C(N)=O (stereo not given) | 76% [middle of 4 runs] | 63.8% [middle of 4 runs] | 55.8% [middle of 4 runs] | 47.9% and 40.3% (2×) and 48.2% | 33.7% [middle of 4 runs] | 30.7% [middle of 4 runs] |  |  | 
6 | 4.35 nM [middle of 4 runs] | CC1(C)CCC(Nc2ncc(C(F)(F)F)c(-c3c[nH]c4c(P(C)(C)=O)c(C#N)ccc34)n2)CN1 (stereo not given) |  |  |  |  |  |  |  |  | viability, T/C (compound 0.000949 µM): 84% [middle of 4 runs]; viability, T/C (compound 0.003 µM): 59.5% [middle of 4 runs]; viability, T/C (compound 0.00949 µM): 30% [middle of 4 runs]; viability, T/C (compound 0.03 µM): 21.3% [middle of 4 runs]; viability, T/C (compound 0.0949 µM): 16.6% [middle of 4 runs]; viability, T/C (compound 0.3 µM): 16.1% [middle of 4 runs]
7 | 100 nM [middle of 4 runs] | CC1(O)CCCC1n1c(=O)c(C(F)F)cc2cnc(NC3CCN(S(C)(=O)=O)CC3)nc21 (stereo not given) | 77.2% [middle of 4 runs] | 50% [middle of 4 runs] | 21.1% [middle of 4 runs] | 25.5% [middle of 4 runs] | 34.8% [middle of 4 runs] | 6.6% [middle of 4 runs] |  |  | 
8 | 1.68 µM [middle of 4 runs] | CCC(CC)c1cc(NC2CCC(N)C2)n2nccc2n1 (stereo not given) | 100% [middle of 4 runs] | 105% [middle of 4 runs] | 105% [middle of 4 runs] |  | 3.17% [middle of 4 runs] | 4.82% [middle of 4 runs] |  |  | 
9 | 194 nM [middle of 4 runs] | CCN1CCN(Cc2ccc(Nc3ncc(F)c(-c4cc(F)c5nc(C)n(C(C)C)c5c4)n3)nc2)CC1 | 70.3% [middle of 4 runs] | 60% [middle of 4 runs] | 44.2% [middle of 4 runs] | 38% [middle of 4 runs] |  |  | 98.7% [middle of 4 runs] | 79.1% [middle of 4 runs] | 
10 | 1.8 nM [middle of 4 runs] | CCc1c2c(nc3ccc(O)cc13)-c1cc3c(c(=O)n1C2)COC(=O)[C@]3(O)CC |  |  |  |  |  |  |  |  | viability, T/C (compound 0.000949 µM): 69.8% [middle of 4 runs]; viability, T/C (compound 0.003 µM): 35% [middle of 4 runs]; viability, T/C (compound 0.00949 µM): 16.7% [middle of 4 runs]; viability, T/C (compound 0.03 µM): 7.4% [middle of 4 runs]; viability, T/C (compound 0.0949 µM): 2.65% [middle of 4 runs]; viability, T/C (compound 0.3 µM): 2.02% [middle of 4 runs]
11 |  | CCn1c(-c2cc(N3CCN(C)CC3)cnc2C(C)OC)c2c3cc(ccc31)-c1csc(n1)CC(NC(=O)C1CC1C)C(=O)N1CCCC(N1)C(=O)OCC(C)(C)C2 (stereo not given) |  |  |  |  |  |  |  |  | viability, T/C (compound 0.000949 µM): 51.8% [middle of 8 runs]; viability, T/C (compound 0.003 µM): 21.4% [middle of 8 runs]; viability, T/C (compound 0.00949 µM): 5.65% [middle of 8 runs]; viability, T/C (compound 0.03 µM): 2.68% [middle of 8 runs]; viability, T/C (compound 0.0949 µM): 2.25% [middle of 8 runs]; viability, T/C (compound 0.3 µM): 1.95% [middle of 7 runs]
12 |  | CCn1c(-c2cccnc2C(C)OC)c2c3cc(ccc31)N1CCOC(CC(NC(=O)C(C(C)C)N(C)C(=O)C3(F)CCN(C(=O)C#CC(C)(C)N(C)C)CC3)C(=O)N3CCCC(N3)C(=O)OCC(C)(C)C2)C1 (stereo not given) |  |  |  |  |  |  |  |  | viability, T/C (compound 0.000949 µM): 105% [middle of 8 runs]; viability, T/C (compound 0.003 µM): 109% [middle of 8 runs]; viability, T/C (compound 0.03 µM): 99.3% [middle of 8 runs]; viability, T/C (compound 0.0949 µM): 99.5% [middle of 8 runs]; viability, T/C (compound 0.3 µM): 88% [middle of 8 runs]; IC50 (compound alone, run of 08/20/2024): > 300 nM
13 | > 10000 nM | C[C@@H](NC(=O)c1ncnc(N)c1Cl)c1ncc(C(=O)Nc2cc(C(F)(F)F)c(Cl)cn2)s1 | 95.1% [middle of 4 runs] | 99.2% [middle of 4 runs] |  | 117% (2×) and 109% and 132% |  |  |  |  | 
14 | > 10000 nM | Cc1nc(N2CCC3(CC2)COC(C)C3N)c(CO)nc1Sc1ccnc(N)c1Cl (stereo not given) | 92% [middle of 4 runs] | 85.4% [middle of 4 runs] | 83.3% [middle of 4 runs] | 85.2% [middle of 4 runs] | 84.6% [middle of 4 runs] | 79% [middle of 4 runs] |  |  | 
15 | 6.44 nM [middle of 4 runs] | Nc1ccn(C2OC(CO)C(O)C2(F)F)c(=O)n1 (stereo not given) | 21.4% and 7.24% and 10.1% (2×) | 5.39% [middle of 4 runs] | 4.06% [middle of 4 runs] | 3.19% [middle of 4 runs] |  |  |  | 36.6% [middle of 4 runs] | 
16 | 39.2 nM [middle of 4 runs] | O=C(c1ccc(F)c(F)c1Nc1ccc(I)cc1F)N1CC(O)([C@@H]2CCCCN2)C1 | 56.3% [middle of 4 runs] | 21.3% (2×) and 13.7% and 21.1% | 2.49% [middle of 4 runs] | 0.68% [middle of 4 runs] |  |  | 85.8% [middle of 4 runs] | 79.5% [middle of 4 runs] | 
